Test: Dissolution of Apixaban in non-halogen and halogen organic solvents
Assay type: physicochemical
Method: 25 mg of Apixaban was added to 1 mL of each of ethyl acetate, ethyl formate, methyl propionate, and ethanol and stirred. As a result, it was confirmed that Apixaban was not dissolved in non-halogen organic solvents (FIG. 1).
25 mg of Apixaban was dissolved in 1 mL of dichloromethane, and the mixture was photographed after 12 hours.

COc1ccc(-n2nc(C(N)=O)c3c2C(=O)N(c2ccc(N4CCCCC4=O)cc2)CC3)cc1 [Apixaban]
Dissolution of Apixaban in halogen organic solvent (25 mg in 1 mL of dichloromethane, photographed after 12 hours): completely dissolved in the beginning, but after a certain time, crystals were formed | Dissolution of Apixaban in non-halogen organic solvents (25 mg in 1 mL of each of ethyl acetate, ethyl formate, methyl propionate, ethanol, stirred): not dissolved | Apixaban concentration in dichloromethane at which recrystallization occurs (dichloromethane): ≥ 10 mg/mL
